Source: ChEMBL document CHEMBL3832548, “DailyMed|setid=ba1cca98-f350-4655-88e3-6ef990779fb9 | KETEK - telithromycin tablet, film coated|Physicians Total Care, Inc”

Assays:
Format in all cases: ADME, organism-based
Homo sapiens = assay: (§1) The pharmacokinetics of Telithromycin evaluated after administration of Ketek to subjects.; conditions: in vivo, po, dosed compound id 4, dosed compound name TELITHROMYCIN, tissue Urine
[1] = as §1; conditions: human, in vivo; dosed compound id 4, dosed compound name TELITHROMYCIN, route oral, tissue Feces; read-out: Excretion
[2] = The pharmacokinetics of Telithromycin evaluated after administration of single 800-mg doses to healthy adult subjects.; design: dose 800 mg, route oral; conditions: human, in vivo, dosed compound id 4, dosed compound name TELITHROMYCIN, gender adult male and female, regimen Single dose, tissue Plasma
[3] = The pharmacokinetics of Telithromycin evaluated after administration of multiple 800-mg doses to healthy adult subjects.; design: dose 800 mg, route oral; conditions: human, in vivo, dosed compound id 4, dosed compound name TELITHROMYCIN, gender adult male and female, regimen Multiple dose, tissue Plasma
[4] = po, 800 mg, read-out: AUC(0-24)

Excretion (Homo sapiens): 13%
dose excreted [1]: 7%
Cmax ([2]; po, 800 mg): 1900 ng/mL
AUC [2, 4]: 8250 ng·h/mL
Tmax ([2]; dose 800 mg, route oral): 1 h
half-life ([2]; dose 800 mg, route oral): 7.16 h
concentration at 24 h ([2]; dose 800 mg, route oral, read-out: C(24h)): 30 ng/mL
Cmax ([3]; po, 800 mg): 2270 ng/mL
AUC [3, 4]: 12500 ng·h/mL
Tmax ([3]; dose 800 mg, route oral): 1 h
half-life ([3]; dose 800 mg, route oral): 9.81 h
SMILES: CC[C@H]1OC(=O)[C@H](C)C(=O)[C@H](C)[C@@H](O[C@@H]2O[C@H](C)C[C@H](N(C)C)[C@H]2O)[C@](C)(OC)C[C@@H](C)C(=O)[C@H](C)[C@H]2N(CCCCn3cnc(-c4cccnc4)c3)C(=O)O[C@]12C [TELITHROMYCIN]
